This note sets out measurements from ChEMBL document CHEMBL5214932, “A closer look at N2,6-substituted 1,3,5-triazine-2,4-diamines: Advances in synthesis and biological activities” (Eur J Med Chem, 2022).

Data set [1] can be described thus: Cytotoxicity against […] cells assessed as cell growth inhibition measured after 72 hrs by CellTiter-Glo assay. The format is functional, cell-based. Conditions: Hepa1-6, 72 h. For orientation: In ATP-based viability assays light output follows the ATP content of the culture.
Data set [2] is described as follows: Cytotoxicity against human Hepa 1-6/R cells assessed as cell growth inhibition measured after 72 hrs by CellTiter-Glo assay. The format is functional, cell-based.
Data set [3] is described as follows: Cytotoxicity against human MT2 cells assessed as cell growth inhibition by MTT assay. The format is toxicity, cell-based. In general terms: Tetrazolium assays rely on reduction of a dye to a coloured formazan, in cell work by metabolically active cells.
Data set [4] deals with Human immunodeficiency virus 1. Nature of the data set: Antiviral activity against wild type HIV1 IIIB assessed as viral growth inhibition measured after 5 days by MTT assay. The format is functional, organism-based. Conditions: Human immunodeficiency virus 1, IIIB, 120 h.
For data set [5], the target named is T1, Equilibrative nucleoside transporter 2 (Homo sapiens, UniProt Q14542).
T1 sequence (Q14542 whole entry): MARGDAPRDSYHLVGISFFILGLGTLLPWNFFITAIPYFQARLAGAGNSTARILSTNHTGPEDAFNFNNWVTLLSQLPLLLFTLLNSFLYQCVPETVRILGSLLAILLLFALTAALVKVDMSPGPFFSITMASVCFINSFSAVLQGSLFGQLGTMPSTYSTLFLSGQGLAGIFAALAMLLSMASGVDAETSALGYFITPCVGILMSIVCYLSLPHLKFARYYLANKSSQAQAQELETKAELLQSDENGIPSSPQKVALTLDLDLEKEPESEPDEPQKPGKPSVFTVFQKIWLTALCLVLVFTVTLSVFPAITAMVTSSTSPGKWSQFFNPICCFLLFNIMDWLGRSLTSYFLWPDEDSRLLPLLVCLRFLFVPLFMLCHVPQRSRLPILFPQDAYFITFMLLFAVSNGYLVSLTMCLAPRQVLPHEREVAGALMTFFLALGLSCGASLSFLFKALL
Nature of the data set: Inhibition of human ENT2 transfected in nucleoside transporter-deficient pig PK-15 cells assessed as inhibition of [3H]-uridine uptake by liquid scintillation counter analysis. The format is cell-based.

The target of data set [6] is T2, Equilibrative nucleoside transporter 1 (Homo sapiens, UniProt Q99808).
T2 sequence (Q99808 whole entry): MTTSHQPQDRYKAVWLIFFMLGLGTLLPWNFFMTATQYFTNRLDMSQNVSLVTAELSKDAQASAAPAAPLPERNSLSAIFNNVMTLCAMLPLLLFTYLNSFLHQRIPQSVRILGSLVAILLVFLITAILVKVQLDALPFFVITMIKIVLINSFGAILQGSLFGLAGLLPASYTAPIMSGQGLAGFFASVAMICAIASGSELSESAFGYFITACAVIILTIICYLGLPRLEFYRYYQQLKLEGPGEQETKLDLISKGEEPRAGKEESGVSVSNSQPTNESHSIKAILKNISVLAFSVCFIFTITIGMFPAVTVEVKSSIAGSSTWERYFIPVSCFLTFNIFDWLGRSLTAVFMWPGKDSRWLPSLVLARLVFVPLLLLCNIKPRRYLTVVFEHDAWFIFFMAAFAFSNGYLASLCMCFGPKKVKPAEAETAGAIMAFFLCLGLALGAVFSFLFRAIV
Nature of the data set: Inhibition of human ENT1 transfected in nucleoside transporter-deficient pig PK-15 cells assessed as inhibition of [3H]-adenosine uptake by liquid scintillation counter analysis. The format is cell-based.

Data set [7] deals with T1, Equilibrative nucleoside transporter 2. Nature of the data set: Inhibition of human ENT2 transfected in nucleoside transporter-deficient pig PK-15 cells assessed as inhibition of [3H]-adenosine uptake by liquid scintillation counter analysis. The format is cell-based.
In data set [8] the target is T2, Equilibrative nucleoside transporter 1. Nature of the data set: Inhibition of human ENT1 transfected in nucleoside transporter-deficient pig PK-15 cells assessed as inhibition of [3H]-uridine uptake by liquid scintillation counter analysis. The format is cell-based.
In data set [9] the test system is A-427. The data set can be described thus: Cytotoxicity against human A-427 cells assessed as cell growth inhibition measured after 96 hrs by microplate reader analysis. The format is functional, cell-based. Conditions: A-427, 96 h.
In data set [10] the test system is LCLC. The data set can be described thus: Cytotoxicity against human LCLC cells assessed as cell growth inhibition measured after 96 hrs by microplate reader analysis. The format is functional, cell-based.
Data set [11] concerns SISO. Nature of the data set: Cytotoxicity against human SISO cells assessed as cell growth inhibition measured after 96 hrs by microplate reader analysis. The format is functional, cell-based.
The test system of data set [12] is RT-4. The data set can be described thus: Cytotoxicity against human RT-4 cells assessed as cell growth inhibition measured after 96 hrs by microplate reader analysis. As to conditions: RT-4, 96 h. The format is functional, cell-based.
For data set [13], the system named is DAN-G. Nature of the data set: Cytotoxicity against human DAN-G cells assessed as cell growth inhibition measured after 96 hrs by microplate reader analysis. The format is functional, cell-based.
Data set [14] deals with MCF7. Nature of the data set: Antiproliferative activity against human MCF7 cells assessed as cell growth inhibition measured after 72 hrs by MTT assay. The format is functional, cell-based. Conditions: MCF7, 72 h.
Data set [15] relates to SK-BR-3. Nature of the data set: Antiproliferative activity against human SK-BR-3 cells assessed as cell growth inhibition measured after 72 hrs by MTT assay. Conditions: SK-BR-3, 72 h. The format is functional, cell-based.
Data set [16] relates to MCF-10A. The data set can be described thus: Antiproliferative activity against human MCF-10A cells assessed as cell growth inhibition measured after 72 hrs by MTT assay. The format is functional, cell-based.
Data set [17] has as its system MDA-MB-231. Nature of the data set: Antiproliferative activity against human MDA-MB-231 cells assessed as cell growth inhibition measured after 72 hrs by MTT assay. Conditions: MDA-MB-231, 72 h. The format is functional, cell-based.
Data set [18] has as its system DU-145. Nature of the data set: Antiproliferative activity against human DU-145 cells assessed as cell growth inhibition measured after 72 hrs by MTT assay. The format is functional, cell-based. As to conditions: DU-145, 72 h.

In the case of `C[C@H](CCc1nc(N)nc(N(C)C)n1)[C@H]1CC[C@H]2[C@@H]3[C@@H](O)C[C@@H]4C[C@H](O)CC[C@]4(C)[C@H]3CC[C@]12C`, the figures for the IC50 in data set [1] and in data set [2] were 28600 nM and 30300 nM, respectively.
With `N#C/C=C/c1cccc(Oc2cc(Nc3nc(N)nc(C4CC4)n3)ccc2C#N)c1`, the values for the IC50 in data set [3] and in [4] were 1700 nM and 43 nM, respectively.
For the compound `Nc1nc(CN2CCN(c3ccccc3F)CC2)nc(Nc2cccc3ccccc23)n1`, the IC50 was found to be 1690 nM in data set [5], 19400 nM in data set [6], 4360 nM in data set [7] and 18000 nM in [8].
`CCN(CC)c1ccc2cc(-c3nc(N)nc(N4CCN(c5ccccc5)CC4)n3)c(=N)oc2c1`: the IC50 came out at 1510 nM in data set [9]; 2210 nM in data set [10]; 2600 nM in [11]; 1660 nM in data set [12]; 2140 nM in [13].
`CN(C)c1ccc(-c2nc(N)nc(Nc3ccccc3F)n2)cc1`: the IC50 is more than 20000 nM in data set [14]; 290 nM in [15]; more than 25000 nM in [16]; 60 nM in data set [17]; 670 nM in [18].

As a reminder, the IC50 is the concentration at which inhibition is half-maximal.
